Test results from PubChem BioAssay (NCI).
“And” between values parts separate entries of the source, which are not always exact repeats. Identical values can stand only once.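 96-well plates; 48 h exposure; 5 concentrations. Endpoints by linear interpolation between flanking doses. Not reached: highest tested concentration assigned. Here, GI50 denotes the concentration required for 50% inhibition of growth. TGI is the concentration that stops growth completely.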

How the values were obtained:
Test in all cases: inhibition of tumour cell growth, NCI panel, 48 h
A498 renal = system: A498 renal
OVCAR-4 ovarian = system: OVCAR-4 ovarian
MALME-3M melanoma = system: MALME-3M melanoma
HT29 colon = system: HT29 colon
OVCAR-5 ovarian = system: OVCAR-5 ovarian
TK-10 renal = system: TK-10 renal
DMS 273 small cell lung = system: DMS 273 small cell lung
CCRF-CEM leukemia = system: CCRF-CEM leukemia
SNB-75 CNS = system: SNB-75 CNS
ACHN renal = system: ACHN renal
CAKI-1 renal = system: CAKI-1 renal
SN12C renal = system: SN12C renal
MOLT-4 leukemia = system: MOLT-4 leukemia
LXFL 529 NSCLC = system: LXFL 529 NSCLC
XF 498 CNS = system: XF 498 CNS
786-0 renal = system: 786-0 renal
HOP-62 NSCLC = system: HOP-62 NSCLC
LOX IMVI melanoma = system: LOX IMVI melanoma
SF-295 CNS = system: SF-295 CNS
SNB-19 CNS = system: SNB-19 CNS
SNB-78 CNS = system: SNB-78 CNS
A549 NSCLC = system: A549 NSCLC
K-562 leukemia = system: K-562 leukemia
OVCAR-8 ovarian = system: OVCAR-8 ovarian
OVCAR-3 ovarian = system: OVCAR-3 ovarian
SK-MEL-2 melanoma = system: SK-MEL-2 melanoma
SK-MEL-28 melanoma = system: SK-MEL-28 melanoma
UO-31 renal = system: UO-31 renal
SK-MEL-5 melanoma = system: SK-MEL-5 melanoma
UACC-62 melanoma = system: UACC-62 melanoma
HCT-15 colon = system: HCT-15 colon
UACC-257 melanoma = system: UACC-257 melanoma
SF-539 CNS = system: SF-539 CNS
DLD-1 colon = system: DLD-1 colon
M19-MEL melanoma = system: M19-MEL melanoma
EKVX NSCLC = system: EKVX NSCLC
HCT-116 colon = system: HCT-116 colon
IGROV1 ovarian = system: IGROV1 ovarian
HL-60(TB) leukemia = system: HL-60(TB) leukemia
KM20L2 colon = system: KM20L2 colon
RXF 393 renal = system: RXF 393 renal
NCI-H226 lung = system: NCI-H226 lung
SK-OV-3 ovarian = system: SK-OV-3 ovarian
M14 melanoma = system: M14 melanoma
NCI-H460 lung = system: NCI-H460 lung
SW-620 colon = system: SW-620 colon
NCI-H522 lung = system: NCI-H522 lung
COLO 205 colon = system: COLO 205 colon
SF-268 CNS = system: SF-268 CNS
U251 CNS = system: U251 CNS
NCI/ADR-RES ovarian = system: NCI/ADR-RES ovarian
MDA-MB-231 breast = system: MDA-MB-231 breast
SR leukemia = system: SR leukemia
MDA-MB-435 = system: MDA-MB-435
KM12 colon = system: KM12 colon
T-47D breast = system: T-47D breast
RPMI-8226 leukemia = system: RPMI-8226 leukemia
HS 578T breast = system: HS 578T breast
NCI-H23 lung = system: NCI-H23 lung
BT-549 breast = system: BT-549 breast
HCC-2998 colon = system: HCC-2998 colon
PC-3 prostate = system: PC-3 prostate
MDA-N = system: MDA-N
MCF7 breast = system: MCF7 breast
DU-145 prostate = system: DU-145 prostate
HOP-92 NSCLC = system: HOP-92 NSCLC

## CC(=O)Nc1ccc(C(=O)NN2C(=O)C(Cl)C2c2ccc(O)cc2)cc1 (stereo not given)
A498 renal
  TGI: > 100 µM
OVCAR-4 ovarian
  TGI: > 100 µM
MALME-3M melanoma
  TGI: > 100 µM
HT29 colon
  TGI: > 100 µM
OVCAR-5 ovarian
  TGI: > 100 µM
TK-10 renal
  TGI: > 100 µM
DMS 273 small cell lung
  TGI: > 100 µM
CCRF-CEM leukemia
  TGI: > 100 µM
SNB-75 CNS
  TGI: > 100 µM
ACHN renal
  TGI: > 100 µM
CAKI-1 renal
  TGI: > 100 µM
SN12C renal
  TGI: > 100 µM
MOLT-4 leukemia
  TGI: > 100 µM
LXFL 529 NSCLC
  TGI: > 100 µM
XF 498 CNS
  TGI: > 100 µM
786-0 renal
  TGI: > 100 µM
HOP-62 NSCLC
  TGI: > 100 µM
LOX IMVI melanoma
  TGI: > 100 µM
SF-295 CNS
  TGI: > 100 µM
SNB-19 CNS
  TGI: > 100 µM
SNB-78 CNS
  TGI: > 100 µM
A549 NSCLC
  TGI: > 100 µM
K-562 leukemia
  TGI: > 100 µM
OVCAR-8 ovarian
  TGI: > 100 µM
OVCAR-3 ovarian
  TGI: > 100 µM
SK-MEL-2 melanoma
  TGI: > 100 µM
SK-MEL-28 melanoma
  TGI: > 100 µM
UO-31 renal
  TGI: > 100 µM
SK-MEL-5 melanoma
  TGI: > 100 µM
UACC-62 melanoma
  TGI: > 100 µM
HCT-15 colon
  TGI: > 100 µM
UACC-257 melanoma
  TGI: > 100 µM
SF-539 CNS
  TGI: > 100 µM
DLD-1 colon
  TGI: > 100 µM
M19-MEL melanoma
  TGI: > 100 µM
EKVX NSCLC
  TGI: > 100 µM
HCT-116 colon
  TGI: > 100 µM
IGROV1 ovarian
  TGI: > 100 µM
HL-60(TB) leukemia
  TGI: > 100 µM
KM20L2 colon
  TGI: > 100 µM
RXF 393 renal
  TGI: > 100 µM
NCI-H226 lung
  TGI: > 100 µM
SK-OV-3 ovarian
  TGI: > 100 µM
M14 melanoma
  TGI: > 100 µM
NCI-H460 lung
  TGI: > 100 µM
SW-620 colon
  TGI: > 100 µM
NCI-H522 lung
  TGI: > 100 µM
COLO 205 colon
  TGI: > 100 µM
SF-268 CNS
  TGI: > 100 µM
U251 CNS
  TGI: > 100 µM

## Cc1ccc(OCC2OC(n3cnc4c(Cl)ncnc43)CC2Oc2ccc(C)cc2)cc1 (stereo not given)
A498 renal
  GI50: 20.4 µM and > 44.5 µM
  TGI: > 70.8 µM
OVCAR-4 ovarian
  GI50: 2.57 µM and 10.6 µM
  TGI: 13.1 µM and > 56.6 µM
MALME-3M melanoma
  GI50: 20.2 µM and 2.68 µM
  TGI: 55.8 µM and 8.66 µM
NCI/ADR-RES ovarian
  TGI: 36.5 µM and 40.8 µM
MDA-MB-231 breast
  TGI: 17.8 µM and 30.6 µM
HT29 colon
  GI50: 1.69 µM and 6.15 µM
  TGI: 3.13 µM and 21.2 µM
SR leukemia
  TGI: > 22.7 µM
OVCAR-5 ovarian
  TGI: 68.5 µM and > 79.7 µM
TK-10 renal
  TGI: > 100 µM
MDA-MB-435
  GI50: 5.84 µM and 2 µM
  TGI: 21 µM and 16.4 µM
CCRF-CEM leukemia
  TGI: > 40 µM
SNB-75 CNS
  TGI: 34.3 µM and > 68.7 µM
ACHN renal
  GI50: 11.1 µM and 1.98 µM
  TGI: 24.9 µM and 3.73 µM
KM12 colon
  GI50: 2.42 µM and 14.3 µM
  TGI: 6.57 µM and 42 µM
CAKI-1 renal
  TGI: 4.18 µM and 5.78 µM
SN12C renal
  GI50: 7.49 µM and 17.5 µM
  TGI: 15.3 µM and 36.6 µM
MOLT-4 leukemia
  TGI: 12.7 µM and 7.95 µM
786-0 renal
  TGI: > 73.4 µM and 51.7 µM
HOP-62 NSCLC
  GI50: 4.29 µM and 17.5 µM
  TGI: 13 µM and 38 µM
LOX IMVI melanoma
  GI50: 2.41 µM and 15 µM
  TGI: 10.8 µM and > 45.9 µM
T-47D breast
  GI50: 8.39 µM and 29.2 µM
  TGI: 49.5 µM and > 100 µM
SF-295 CNS
  TGI: 30.2 µM and 38.1 µM
RPMI-8226 leukemia
  GI50: 3.03 µM
  TGI: > 25 µM and 22.5 µM
SNB-19 CNS
  GI50: 2.8 µM and 17 µM
  TGI: 6.86 µM and 33.4 µM
A549 NSCLC
  GI50: 7.37 µM and 18.9 µM
  TGI: 15.9 µM and 37 µM
K-562 leukemia
  TGI: > 23.9 µM and 61.8 µM
OVCAR-8 ovarian
  TGI: 24.6 µM and 24.2 µM
OVCAR-3 ovarian
  GI50: 3.16 µM and 8.9 µM
  TGI: 9.72 µM and 27.7 µM
SK-MEL-2 melanoma
  TGI: 30.2 µM and 33.8 µM
SK-MEL-28 melanoma
  TGI: 14.9 µM
UO-31 renal
  GI50: 8.08 µM and 1.84 µM
  TGI: 15.8 µM and 3.29 µM
HS 578T breast
  TGI: > 59.2 µM and 27.5 µM
SK-MEL-5 melanoma
  TGI: 30.5 µM and 34.9 µM
NCI-H23 lung
  GI50: 3.03 µM and 11.9 µM
  TGI: 7.99 µM and 27.8 µM
UACC-62 melanoma
  GI50: 9.01 µM and 22.8 µM
  TGI: 25.9 µM and > 59 µM
HCT-15 colon
  GI50: 1.94 µM and 11.7 µM
  TGI: 4.28 µM and 41.6 µM
UACC-257 melanoma
  GI50: 6.24 µM and 16 µM
  TGI: 18.5 µM and 37.1 µM
BT-549 breast
  TGI: 40 µM and 49.9 µM
SF-539 CNS
  TGI: 50.6 µM and 36.1 µM
HCC-2998 colon
  GI50: 5.44 µM and 16.8 µM
  TGI: 12.8 µM and 37 µM
EKVX NSCLC
  TGI: 7.18 µM and 10.2 µM
HCT-116 colon
  GI50: 2.4 µM and 14.3 µM
  TGI: 7.13 µM and 38.2 µM
PC-3 prostate
  GI50: 3.53 µM and 17.6 µM
  TGI: 9.35 µM and 34.3 µM
MDA-N
  GI50: 4.63 µM and 16.6 µM
  TGI: 11.2 µM and 35.7 µM
IGROV1 ovarian
  GI50: 2.43 µM and 5.87 µM
  TGI: 5.88 µM and 14 µM
MCF7 breast
  GI50: 4.44 µM and 21 µM
  TGI: 12.6 µM and > 58.8 µM
HL-60(TB) leukemia
  GI50: 2.79 µM
  TGI: 7.17 µM
RXF 393 renal
  GI50: 2.85 µM and 10.9 µM
  TGI: 10.6 µM and 37.2 µM
NCI-H226 lung
  TGI: 31.7 µM and 44.1 µM
SK-OV-3 ovarian
  TGI: > 81.1 µM
DU-145 prostate
  GI50: 1.96 µM and 13.3 µM
  TGI: 3.65 µM and 28.1 µM
M14 melanoma
  GI50: 2.75 µM and 7.3 µM
  TGI: 6.61 µM and 22.6 µM
NCI-H460 lung
  GI50: 3.71 µM and 13.4 µM
  TGI: 18.3 µM and > 48.5 µM
SW-620 colon
  TGI: > 55.4 µM
NCI-H522 lung
  TGI: 6.66 µM and 3.82 µM
COLO 205 colon
  GI50: 6.45 µM and 20.8 µM
  TGI: 19.4 µM and 74.4 µM
SF-268 CNS
  TGI: 21.8 µM and 26.9 µM
U251 CNS
  TGI: 11 µM and > 50.4 µM
HOP-92 NSCLC
  GI50: 5.22 µM and 2.22 µM
  TGI: 24.2 µM and 5.57 µM

## Cc1nc2ccccc2c(=O)n1/N=C(\N=Nc1cccc(Cl)c1)c1ccccc1Cl
HT29 colon
  TGI: > 100 µM
TK-10 renal
  TGI: > 100 µM
DMS 273 small cell lung
  TGI: > 100 µM
CAKI-1 renal
  TGI: > 100 µM
SN12C renal
  TGI: > 100 µM
XF 498 CNS
  TGI: 3.91 µM
786-0 renal
  TGI: > 100 µM
HOP-62 NSCLC
  TGI: > 100 µM
LOX IMVI melanoma
  TGI: > 100 µM
SF-295 CNS
  TGI: 71.5 µM
RPMI-8226 leukemia
  TGI: > 100 µM
A549 NSCLC
  TGI: > 100 µM
K-562 leukemia
  TGI: 3.73 µM
OVCAR-8 ovarian
  TGI: > 100 µM
UO-31 renal
  TGI: > 100 µM
SK-MEL-5 melanoma
  TGI: > 100 µM
NCI-H23 lung
  TGI: > 100 µM
UACC-62 melanoma
  TGI: > 100 µM
HCT-15 colon
  TGI: > 100 µM
SF-539 CNS
  TGI: 89 µM
DLD-1 colon
  TGI: > 100 µM
M19-MEL melanoma
  TGI: > 100 µM
EKVX NSCLC
  TGI: > 100 µM
HCT-116 colon
  TGI: > 100 µM
KM20L2 colon
  TGI: > 100 µM
RXF 393 renal
  TGI: 55.2 µM
SK-OV-3 ovarian
  TGI: 62.8 µM
M14 melanoma
  TGI: > 100 µM
NCI-H460 lung
  TGI: > 100 µM
SW-620 colon
  TGI: > 100 µM
NCI-H522 lung
  TGI: > 100 µM
U251 CNS
  TGI: > 100 µM
HOP-92 NSCLC
  TGI: 58.5 µM
